In patent US20250361230A1, “LATS Inhibitors and Uses Thereof” (The USA, as Represented by the Secretary, Dept. of Heath …, priority 2022, published 2025):
Where two headings read alike, the source gives them in different places.

Assays:
Assay type in all cases: biochemical
LATS1 = molecular target: T1, LATS1 (Homo sapiens, UniProt O95835); test: RBC HotSpot kinase assay (33P-ATP, P81 filter-binding), LATS1
T1 sequence (O95835 1-1130): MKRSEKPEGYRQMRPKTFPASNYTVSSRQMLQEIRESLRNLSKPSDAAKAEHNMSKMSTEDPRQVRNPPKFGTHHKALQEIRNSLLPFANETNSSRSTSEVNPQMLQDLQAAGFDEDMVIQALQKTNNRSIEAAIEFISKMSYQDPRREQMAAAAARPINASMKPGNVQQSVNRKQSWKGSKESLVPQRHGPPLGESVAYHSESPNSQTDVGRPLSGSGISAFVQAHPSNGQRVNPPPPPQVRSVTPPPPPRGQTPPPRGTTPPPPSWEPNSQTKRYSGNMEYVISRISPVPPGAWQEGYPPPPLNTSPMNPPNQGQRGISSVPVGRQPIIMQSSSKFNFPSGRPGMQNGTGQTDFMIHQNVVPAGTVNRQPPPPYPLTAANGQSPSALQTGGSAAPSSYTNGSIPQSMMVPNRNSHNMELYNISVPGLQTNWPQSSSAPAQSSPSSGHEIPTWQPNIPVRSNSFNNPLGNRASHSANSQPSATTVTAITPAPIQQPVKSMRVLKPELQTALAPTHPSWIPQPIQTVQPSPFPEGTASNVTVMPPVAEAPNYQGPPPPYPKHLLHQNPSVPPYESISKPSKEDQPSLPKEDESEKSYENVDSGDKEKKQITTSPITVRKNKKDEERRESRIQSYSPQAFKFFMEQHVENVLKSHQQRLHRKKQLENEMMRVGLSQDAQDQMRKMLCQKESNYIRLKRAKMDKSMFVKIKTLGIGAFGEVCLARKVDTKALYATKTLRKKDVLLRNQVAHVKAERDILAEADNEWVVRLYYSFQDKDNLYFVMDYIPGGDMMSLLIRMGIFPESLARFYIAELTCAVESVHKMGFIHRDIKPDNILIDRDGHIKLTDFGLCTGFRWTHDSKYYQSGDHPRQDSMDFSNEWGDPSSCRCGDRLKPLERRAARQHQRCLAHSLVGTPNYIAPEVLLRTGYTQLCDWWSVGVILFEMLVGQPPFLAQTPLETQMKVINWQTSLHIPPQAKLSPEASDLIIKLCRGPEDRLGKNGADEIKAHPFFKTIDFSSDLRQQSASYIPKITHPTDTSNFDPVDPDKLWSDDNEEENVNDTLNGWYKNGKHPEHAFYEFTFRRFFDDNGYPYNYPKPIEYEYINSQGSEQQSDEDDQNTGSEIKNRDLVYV
Outline: (§1)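 Compounds were run as single 10-point titrations to give IC50 values in nM. Each kinase was mixed with substrate and cofactors in 20 mM Hepes pH 7.5 reaction buffer with 1% DMSO, then exposed to compound for 20 min. 33P-ATP was added for a 2 h room-temperature reaction, with activity measured by P81 filter binding.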

LATS2 = molecular target: T2, LATS2 (Homo sapiens, UniProt Q9NRM7); test: RBC HotSpot kinase assay (33P-ATP, P81 filter-binding), LATS2
T2 sequence (Q9NRM7 1-1088): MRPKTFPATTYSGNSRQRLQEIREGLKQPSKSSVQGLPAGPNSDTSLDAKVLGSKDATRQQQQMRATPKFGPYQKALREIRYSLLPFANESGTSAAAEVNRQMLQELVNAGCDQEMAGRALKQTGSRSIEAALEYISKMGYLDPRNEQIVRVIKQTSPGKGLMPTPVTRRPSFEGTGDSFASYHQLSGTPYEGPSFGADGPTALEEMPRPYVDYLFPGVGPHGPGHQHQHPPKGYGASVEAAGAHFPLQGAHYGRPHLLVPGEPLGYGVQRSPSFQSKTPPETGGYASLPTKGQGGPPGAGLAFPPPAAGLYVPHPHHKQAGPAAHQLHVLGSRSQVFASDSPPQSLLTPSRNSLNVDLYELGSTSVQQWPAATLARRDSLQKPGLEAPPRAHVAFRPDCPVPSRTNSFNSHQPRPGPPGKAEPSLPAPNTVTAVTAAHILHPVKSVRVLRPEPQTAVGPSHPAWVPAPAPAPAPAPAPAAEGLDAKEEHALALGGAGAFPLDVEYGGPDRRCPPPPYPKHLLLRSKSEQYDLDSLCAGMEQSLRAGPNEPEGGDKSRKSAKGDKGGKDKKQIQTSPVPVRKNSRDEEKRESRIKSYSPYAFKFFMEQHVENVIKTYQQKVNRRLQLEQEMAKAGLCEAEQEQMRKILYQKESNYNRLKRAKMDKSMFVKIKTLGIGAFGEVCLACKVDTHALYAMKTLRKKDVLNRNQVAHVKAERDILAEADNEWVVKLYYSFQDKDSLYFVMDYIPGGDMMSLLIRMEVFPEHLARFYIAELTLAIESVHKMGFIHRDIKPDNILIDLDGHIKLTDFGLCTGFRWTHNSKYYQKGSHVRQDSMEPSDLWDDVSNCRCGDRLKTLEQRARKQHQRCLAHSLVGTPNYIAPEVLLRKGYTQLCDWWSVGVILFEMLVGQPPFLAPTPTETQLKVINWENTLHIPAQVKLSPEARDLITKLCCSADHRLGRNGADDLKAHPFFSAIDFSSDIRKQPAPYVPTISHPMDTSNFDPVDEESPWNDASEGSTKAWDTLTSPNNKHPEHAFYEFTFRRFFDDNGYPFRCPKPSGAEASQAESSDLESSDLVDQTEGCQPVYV
Outline: as §1

AKT = AKT (Homo sapiens, UniProt P31749); test: RBC HotSpot kinase assay (33P-ATP, P81 filter-binding), AKT
AKT, sequence (P31749 whole entry): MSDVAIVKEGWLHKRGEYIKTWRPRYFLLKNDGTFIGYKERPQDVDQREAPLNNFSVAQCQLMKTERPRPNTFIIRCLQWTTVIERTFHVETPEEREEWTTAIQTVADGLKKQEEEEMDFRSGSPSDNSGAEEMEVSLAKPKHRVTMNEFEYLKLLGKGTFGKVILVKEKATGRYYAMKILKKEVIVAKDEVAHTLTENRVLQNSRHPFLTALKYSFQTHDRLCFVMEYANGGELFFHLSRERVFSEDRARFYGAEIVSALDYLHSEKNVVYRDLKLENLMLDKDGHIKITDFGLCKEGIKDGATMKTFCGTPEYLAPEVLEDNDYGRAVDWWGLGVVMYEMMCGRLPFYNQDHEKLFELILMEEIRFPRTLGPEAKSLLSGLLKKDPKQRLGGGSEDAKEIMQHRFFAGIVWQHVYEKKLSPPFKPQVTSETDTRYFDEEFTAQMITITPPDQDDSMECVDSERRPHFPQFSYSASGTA
Outline: as §1

[1] = Table 28, biochemical kinase assay, read-out: LATS1 IC50
[2] = Table 28, biochemical kinase assay, read-out: LATS2 IC50
[3] = Table 28, biochemical kinase assay, read-out: AKT IC50

SMILES | IC50 (LATS1; [1]) [nM] | IC50 (LATS2; [2]) [nM] | IC50 (AKT; [3]) [nM] | IC50 (LATS1) [nM] | IC50 (LATS2) [nM] | IC50 (AKT) [nM]
Cc1cc(-c2ccnc3[nH]cc(F)c23)cc(F)c1C1(O)CC2(CNC2)C1 [Compound 108, 6-(2-fluoro-4-(3-fluoro-1H-pyrrolo[2,3-b]pyridin-4-yl)-6-methylphenyl)-2-azaspiro[3.3]heptan-6-ol] | 17.4 | 24.8 | 1270 |  |  | 
OC1(c2c(F)cc(-c3ccnc4[nH]cc(F)c34)cc2F)CC2(CNC2)C1 [Compound 109, 6-(2,6-difluoro-4-(3-fluoro-1H-pyrrolo[2,3-b]pyridin-4-yl)phenyl)-2-azaspiro[3.3]heptan-6-ol] | 46 | 61 | 2980 |  |  | 
OC1(c2ccc(-c3ccnc4[nH]ccc34)cc2)C[C@H]2CC[C@@H](C1)N2 (stereo partly drawn) [Compound 115, (1R,5S)-3-(4-(1H-pyrrolo[2,3-b]pyridin-4-yl)phenyl)-8-azabicyclo[3.2.1]octan-3-ol] | 7.2 | 10 | 176 |  |  | 
OC1(c2ccc(-c3ccnc4[nH]cc(F)c34)cc2)CNC1 [Compound 116, 3-(4-(3-fluoro-1H-pyrrolo[2,3-b]pyridin-4-yl)phenyl)azetidin-3-ol] | 9.2 | 16.7 | 468 |  |  | 
OC1(c2ccc(-c3ccnc4[nH]cc(Br)c34)nc2)C[C@H]2CC[C@@H](C1)N2 (stereo partly drawn) [Compound 119, (1R,5S)-3-(6-(3-bromo-1H-pyrrolo[2,3-b]pyridin-4-yl)pyridin-3-yl)-8-azabicyclo[3.2.1]octan-3-ol] |  |  |  | 29.8 | 184 | 2590
CC1CC(O)(c2ccc(-c3ccnc4[nH]cc(Br)c34)cc2Cl)CC(C)N1 (stereo not drawn) [Compound 120, 4-(4-(3-bromo-1H-pyrrolo[2,3-b]pyridin-4-yl)-2-chlorophenyl)-2,6-dimethylpiperidin-4-ol] | 58 | 30 | 103 |  |  | 
OC1(c2ccc(-c3ccnc4[nH]cc(Br)c34)cc2Cl)C2CNCC1C2 (stereo not drawn) [Compound 121, 6-(4-(3-bromo-1H-pyrrolo[2,3-b]pyridin-4-yl)-2-chlorophenyl)-3-azabicyclo[3.1.1]heptan-6-ol] | 10.2 | 14.6 | 307 |  |  | 
CC1CN(C)CC(C)C1(O)c1ccc(-c2ccnc3[nH]cc(Br)c23)cc1Cl (stereo not drawn) [Compound 125, 4-(4-(3-bromo-1H-pyrrolo[2,3-b]pyridin-4-yl)-2-chlorophenyl)-1,3,5-trimethylpiperidin-4-ol] | 14.1 | 7 | 108 |  |  | 
CC1CN(C)CC(C)C1(O)c1ccc(-c2ccnc3[nH]cc(F)c23)cc1-c1ccccc1 (stereo not drawn) [Compound 129, 4-(5-(3-fluoro-1H-pyrrolo[2,3-b]pyridin-4-yl)-[1,1′-biphenyl]-2-yl)-1,3,5-trimethylpiperidin-4-ol] | 157 | 190 | 233 |  |  | 
C[C@@H]1CNC[C@H](C)C1(O)c1cnc(-c2ccnc3[nH]cc(F)c23)cc1-c1ccccc1 (stereo partly drawn) [Compound 130, (3S,5R)-4-(6-(3-fluoro-1H-pyrrolo[2,3-b]pyridin-4-yl)-4-phenylpyridin-3-yl)-3,5-dimethylpiperidin-4-ol] | 146 | 381 | 2260 |  |  | 

Now from value to molecule, other results behind:

IC50 (LATS1; [1]) [nM] | IC50 (LATS2; [2]) [nM] | IC50 (AKT; [3]) [nM] | SMILES | IC50 (LATS1) [nM] | IC50 (LATS2) [nM] | IC50 (AKT) [nM]
9.2 | 18 | 2330 | COC(=O)c1c[nH]c2nccc(-c3ccc(C4(O)CCNCC4)cc3)c12 [Compound 112, methyl 4-(4-(4-hydroxypiperidin-4-yl)phenyl)-1H-pyrrolo[2,3-b]pyridine-3-carboxylate] |  |  | 
12.4 | 65.5 | 1060 | COC(=O)c1c[nH]c2nccc(-c3ccc(C4(O)C[C@H]5CC[C@@H](C4)N5)cc3)c12 (stereo partly drawn) [Compound 113, methyl 4-(4-((1R,5S)-3-hydroxy-8-azabicyclo[3.2.1]octan-3-yl)phenyl)-1H-pyrrolo[2,3-b]pyridine-3-carboxylate] |  |  | 
23 | 19 | 390 | OC1(c2ccc(-c3ccnc4[nH]cc(F)c34)cc2)C[C@H]2CC[C@@H](C1)N2 (stereo partly drawn) [Compound 114, (1R,5S)-3-(4-(3-fluoro-1H-pyrrolo[2,3-b]pyridin-4-yl)phenyl)-8-azabicyclo[3.2.1]octan-3-ol] |  |  | 
4.2 | 3.2 | 240 | OC1(c2ccc(-c3ccnc4[nH]cc(Br)c34)cc2)CCNCC1 [Compound 117, 4-(4-(3-bromo-1H-pyrrolo[2,3-b]pyridin-4-yl)phenyl)piperidin-4-ol] |  |  | 
1.8 | 0.9 | 14 | OC1(c2ccc(-c3ccnc4[nH]cc(Br)c34)cc2)C[C@H]2CC[C@@H](C1)N2 (stereo partly drawn) [Compound 118, (1R,5S)-3-(4-(3-bromo-1H-pyrrolo[2,3-b]pyridin-4-yl)phenyl)-8-azabicyclo[3.2.1]octan-3-ol] |  |  | 
5.3 | 8.9 | 51.2 | OC1(c2ccc(-c3ccnc4[nH]cc(Br)c34)cc2Cl)C[C@H]2CC[C@@H](C1)N2 (stereo partly drawn) [Compound 122, (1R,5S)-3-(4-(3-bromo-1H-pyrrolo[2,3-b]pyridin-4-yl)-2-chlorophenyl)-8-azabicyclo[3.2.1]octan-3-ol] |  |  | 
12 | 7 | 158 | OC1(c2ccc(-c3ccnc4[nH]cc(Br)c34)cc2Cl)CNC1 [Compound 123, 3-(4-(3-bromo-1H-pyrrolo[2,3-b]pyridin-4-yl)-2-chlorophenyl)azetidin-3-ol] |  |  | 
5.7 | 3.7 | 128 | CN1CCC(O)(c2ccc(-c3ccnc4[nH]cc(Br)c34)cc2)CC1 [Compound 124, 4-(4-(3-bromo-1H-pyrrolo[2,3-b]pyridin-4-yl)phenyl)-1-methylpiperidin-4-ol] |  |  | 
9.1 | 32 | 245 | OC1(c2ccc(-c3ccnc4[nH]cc(-c5cccnc5)c34)cc2)CCNCC1 [Compound 126, 4-(4-(3-(pyridin-3-yl)-1H-pyrrolo[2,3-b]pyridin-4-yl)phenyl)piperidin-4-ol] |  |  | 
19 | 40 | 4300 | Cc1cncc(-c2c[nH]c3nccc(-c4ccc(C5(O)CCNCC5)cc4)c23)c1 [Compound 127, 4-(4-(3-(5-methylpyridin-3-yl)-1H-pyrrolo[2,3-b]pyridin-4-yl)phenyl)piperidin-4-ol] |  |  | 
31 | 36 | 2050 | CN1CCC(O)(c2ccc(-c3ccnc4[nH]cc(-c5cccnc5)c34)cc2)CC1 [Compound 128, 1-methyl-4-(4-(3-(pyridin-3-yl)-1H-pyrrolo[2,3-b]pyridin-4-yl)phenyl)piperidin-4-ol] |  |  | 
